Measurements from patent US11807644B2 (PMV Pharmaceuticals, Inc., priority 2020, dated 2023).

Target: T1, recombinant His-tag Y220C p53 DBD protein (Homo sapiens, UniProt P04637, Y220C)
T1 construct: recombinant His-tag Y220C p53 DBD protein (amino acids #˜94-312)
Assay: In vitro DNA binding activity assay (TR-FRET): binding of His-tag Y220C p53 DBD to biotin-labeled consensus DNA
Type: biochemical
Details: SC150 = concentration to increase DNA binding by […], His-tag Y220C p53 DBD, biotin-labeled consensus DNA

Y220C SC150 (μM)	SMILES
* (* = 0 μM ≤ SC150 < 0.1 μM)	CN1CCC(n2cc(C(=O)NCc3nc(-c4cc5c(N[C@@H]6CCN(C)C[C@@H]6F)cccc5n4CC(F)(F)F)no3)cn2)C1 (stereo partly drawn) [Compound 349B, N-{[3-(4-{1[(3S,4R)-3-fluoro-1-methylpiperidin-4-yl]amino}-1-(2,2,2-trifluoroethyl)-1H-indol-2-yl)-1,2,4-oxadiazol-5-yl]methyl}-1-(1-methylpyrrolidin-3-yl)-1H-pyrazole-4-carboxamide]
* (* = 0 μM ≤ SC150 < 0.1 μM)	CN1CCC(n2cc(C(=O)NCc3nc(-c4cc5c(N[C@@H]6CCN(C)C[C@@H]6F)cccc5n4CC(F)(F)F)no3)cn2)CC1 [Compound 350B, N-{[3-(4-{1[(3S,4R)-3-fluoro-1-methylpiperidin-4-yl]amino}-1-(2,2,2-trifluoroethyl)-1H-indol-2-yl)-1,2,4-oxadiazol-5-yl]methyl}-1-(1-methylpiperidin-4-yl)-1H-pyrazole-4-carboxamide]
* (* = 0 μM ≤ SC150 < 0.1 μM)	CN1CCC(n2ccc(C(=O)NCc3nc(-c4cc5c(N[C@@H]6CCN(C)C[C@@H]6F)cccc5n4CC(F)(F)F)no3)c2)C1 (some centres unmarked) [Compound 351B]
* (* = 0 μM ≤ SC150 < 0.1 μM)	CC(C)(C)n1cc(C(=O)NCc2nc(-c3cc4c(N[C@H]5CCCNC5)cccc4n3CC(F)(F)F)no2)cn1 [Compound 353B]
* (* = 0 μM ≤ SC150 < 0.1 μM)	CC(C)(C)n1ccc(C(=O)NCc2nc(-c3cc4c(N[C@H]5CC[C@H](F)CC5)cccc4n3CC(F)(F)F)no2)c1 [Compound 354B, 1-tert-butyl-N-{[3-(4-{[(1r,4r)-4-fluorocyclohexyl]amino}-1-(2,2,2-trifluoroethyl)-1H-indol-2-yl)-1,2,4-oxadiazol-5-yl]methyl}-1H-pyrrole-3-carboxamide]
* (* = 0 μM ≤ SC150 < 0.1 μM)	CC(C)(C)n1ccc(C(=O)NCc2nc(-c3cc4c(N[C@H]5CCC(=O)NC5)cccc4n3CC(F)(F)F)no2)c1 [Compound 356B, 1-tert-butyl-N-{[3-(4-{[(3S)-6-oxopiperidin-3-yl]amino}-1-(2,2,2-trifluoroethyl)-1H-indol-2-yl)-1,2,4-oxadiazol-5-yl]methyl}-1H-pyrrole-3-carboxamide]
* (* = 0 μM ≤ SC150 < 0.1 μM)	CN1CCC(n2ccc(C(=O)NCc3nc(-c4cc5c(N[C@@H]6CCN(C)C[C@@H]6F)cccc5n4CC(F)(F)F)no3)c2)CC1 [Compound 363B, N-{[3-(4-{[(3S,4R)-3-fluoro-1-methylpiperidin-4-yl]amino)-1-(2,2,2-trifluoroethyl)-1H-indol-2-yl)-1,2,4-oxadiazol-5-yl]methyl)-1-(1-methylpiperidin-4-yl)-1H-pyrrole-3-carboxamide]
* (* = 0 μM ≤ SC150 < 0.1 μM)	CCN1CC[C@@H](Nc2cccc3c2cc(-c2noc(CNC(=O)c4ccn(CC(=O)N(C)C)c4)n2)n3CC(F)(F)F)[C@@H](F)C1 [Compound 365B, 1-[(dimethylcarbamoyl)methyl]-N-{[3-(4-{[(3S,4R)-1-ethyl-3-fluoropiperidin-4-yl]amino}-1-(2,2,2-trifluoroethyl)-1H-indol-2-yl)-1,2,4-oxadiazol-5-yl]methyl}-1H-pyrrole-3-carboxamide]
* (* = 0 μM ≤ SC150 < 0.1 μM)	CC(C)(C)n1ccc(C(=O)NCc2nc(-c3cc4c(NC5CCn6ccnc6C5)cccc4n3CC(F)(F)F)no2)c1 (centres unmarked) [Compound 366B, 1-tert-butyl-N-({3-[4-({5H,6H, 7H,8H-imidazo[1,2-a]pyridin-7-yl}amino)-1-(2,2,2-trifluoroethyl)-1H-indol-2-yl]-1,2,4-oxadiazol-5-yl}methyl)-1H-pyrrole-3-carboxamide]
* (* = 0 μM ≤ SC150 < 0.1 μM)	CC(C)(C)n1ccc(C(=O)NCc2nc(-c3cc4c(N[C@@H]5CCC(=O)NC5)cccc4n3CC(F)(F)F)no2)c1 [Compound 367B, 1-tert-butyl-N-{[3-(4-{[(3R)-6-oxopiperidin-3-yl]amino}-1-(2,2,2-trifluoroethyl)-1H-indol-2-yl)-1,2,4-oxadiazol-5-yl]methyl}-1H-pyrrole-3-carboxamide]
* (* = 0 μM ≤ SC150 < 0.1 μM)	CN1CC[C@@H](Nc2cccc3c2cc(-c2noc(CNC(=O)c4cnn(C5CCC5)c4)n2)n3CC(F)(F)F)[C@@H](F)C1 [Compound 369B, 1-cyclobutyl-N-{[3-(4-{1[(3S,4R)-3-fluoro-1-methylpiperidin-4-yl]amino}-1-(2,2,2-trifluoroethyl)-1H-indol-2-yl)-1,2,4-oxadiazol-5-yl]methyl}-1H-pyrazole-4-carboxamide]
* (* = 0 μM ≤ SC150 < 0.1 μM)	CN1CC[C@@H](Nc2cccc3c2cc(-c2noc(CNC(=O)c4ccn(C5(C)CCOCC5)c4)n2)n3CC(F)(F)F)[C@@H](F)C1 [Compound 371B, N-{[3-(4-{[(3S,4R)-3-fluoro-1-methylpiperidin-4-yl]amino}-1-(2,2,2-trifluoroethyl)-1H-indol-2-yl)-1,2,4-oxadiazol-5-yl]methyl}-1-(4-methyloxan-4-yl)-1H-pyrrole-3-carboxamide]
* (* = 0 μM ≤ SC150 < 0.1 μM)	CN1CC[C@@H](Nc2cccc3c2cc(-c2noc(CNC(=O)c4cnn(C5COC5)c4)n2)n3CC(F)(F)F)[C@@H](F)C1 [Compound 372B, N-{[3-(4-{[(3S,4R)-3-fluoro-1-methylpiperidin-4-yl]amino}-1-(2,2,2-trifluoroethyl)-1H-indol-2-yl)-1,2,4-oxadiazol-5-yl]methyl}-1-(oxetan-3-yl)-1H-pyrazole-4-carboxamide]
* (* = 0 μM ≤ SC150 < 0.1 μM)	COc1ccc(NCc2nc(-c3cc4c(N[C@@H]5CCN(C)C[C@@H]5F)cccc4n3CC(F)(F)F)no2)nc1 [Compound 378B, N-[(3S,4R)-3-fluoro-1-methylpiperidin-4-yl]-2-(5-{[(5-methoxypyridin-2-yl)amino]methyl}-1,2,4-oxadiazol-3-yl)-1-(2,2,2-trifluoroethyl)-1H-indol-4-amine]
* (* = 0 μM ≤ SC150 < 0.1 μM)	CN1CC[C@@H](Nc2cccc3c2cc(-c2noc(CNC(=O)c4ccn(C5COC5)c4)n2)n3CC(F)(F)F)[C@@H](F)C1 [Compound 379B, N-{[3-(4-{[(3S,4R)-3-fluoro-1-methylpiperidin-4-yl]amino}-1-(2,2,2-trifluoroethyl)-1H-indol-2-yl)-1,2,4-oxadiazol-5-yl]methyl}-1-(oxetan-3-yl)-1H-pyrrole-3-carboxamide]
* (* = 0 μM ≤ SC150 < 0.1 μM)	COc1ccc(NCc2nc(-c3cc4c(N[C@@H]5CCN(C)C[C@@H]5F)cccc4n3CC(F)(F)F)no2)cc1 [Compound 380B, N-[(3S,4R)-3-fluoro-1-methylpiperidin-4-yl]-2-(5-{[(4-methoxyphenyl)amino]methyl}-1,2,4-oxadiazol-3-yl)-1-(2,2,2-trifluoroethyl)-1H-indol-4-amine]
* (* = 0 μM ≤ SC150 < 0.1 μM)	COCC(C)(C)n1ccc(C(=O)NCc2nc(-c3cc4c(N[C@@H]5CCN(C)C[C@@H]5F)cccc4n3CC(F)(F)F)no2)c1 [Compound 383B, N-{[3-(4-{[(3S,4R)-3-fluoro-1-methylpiperidin-4-yl]amino}-1-(2,2,2-trifluoroethyl)-1H-indol-2-yl)-1,2,4-oxadiazol-5-yl]methyl}-1-(1-methoxy-2-methylpropan-2-yl)-1H-pyrrole-3-carboxamide]
* (* = 0 μM ≤ SC150 < 0.1 μM)	CN1CC[C@@H](Nc2cccc3c2cc(-c2noc(CNC(=O)c4ccn(C5(C)COC5)c4)n2)n3CC(F)(F)F)[C@@H](F)C1 [Compound 386B, N-{[3-(4-{[(3S,4R)-3-fluoro-1-methylpiperidin-4-yl]amino}-1-(2,2,2-trifluoroethyl)-1H-indol-2-yl)-1,2,4-oxadiazol-5-yl]methyl}-1-(3-methyloxetan-3-yl)-1H-pyrrole-3-carboxamide]
* (* = 0 μM ≤ SC150 < 0.1 μM)	CN1CC[C@@H](Nc2cccc3c2cc(-c2noc(CNc4ccn(C(C)(C)C)n4)n2)n3CC(F)(F)F)[C@@H](F)C1 [Compound 390B, 2-(5-{[(1-tert-butyl-1H-pyrazol-3-yl)amino]methyl}-1,2,4-oxadiazol-3-yl)-N-[(3S,4R)-3-fluoro-1-methylpiperidin-4-yl]-1-(2,2,2-trifluoroethyl)-1H-indol-4-amine]
* (* = 0 μM ≤ SC150 < 0.1 μM)	CC(C)(C)N1CC[C@@H](Nc2cccc3c2cc(-c2noc(CNC(=O)c4ccn(C(C)(C)C)c4)n2)n3CC(F)(F)F)[C@@H](F)C1 [Compound 393B, 1-tert-butyl-N-{[3-(4-{[(3S,4R)-1-tert-butyl-3-fluoropiperidin-4-yl]amino}-1-(2,2,2-trifluoroethyl)-1H-indol-2-yl)-1,2,4-oxadiazol-5-yl]methyl}-1H-pyrrole-3-carboxamide]
* (* = 0 μM ≤ SC150 < 0.1 μM)	CC(C)(C)N1CC[C@@H](Nc2cccc3c2cc(-c2noc(CNC(=O)c4ccn(C(C)(C)C)c4)n2)n3CC(F)(F)F)[C@H](F)C1 [Compound 394B, 1-tert-butyl-N-{[3-(4-{[(3R,4R)-1-tert-butyl-3-fluoropiperidin-4-yl]amino}-1-(2,2,2-trifluoroethyl)-1H-indol-2-yl)-1,2,4-oxadiazol-5-yl]methyl}-1H-pyrrole-3-carboxamide]

SMILES	Y220C SC150 (μM)
Cc1nc2c(s1)CC(Nc1cccc3c1cc(-c1noc(CNC(=O)c4ccn(C(C)(C)C)c4)n1)n3CC(F)(F)F)CC2 (centres unmarked) [Compound 368B, 1-tert-butyl-N-[(3-{4-[(2-methyl-4,5,6,7-tetrahydro-1,3-benzothiazol-6-yl)amino]-1-(2,2,2-trifluoroethyl)-1H-indol-2-yl}-1,2,4-oxadiazol-5-yl)methyl]-1H-pyrrole-3-carboxamide]	*** (*** = 0.5 μM ≤ SC150 < 1 μM)
COCC(C)(C)n1cc(C(=O)NCc2nc(-c3cc4c(N[C@@H]5CCN(C)C[C@@H]5F)cccc4n3CC(F)(F)F)no2)cn1 [Compound 391B, N-{[3-(4-{[(3S,4R)-3-fluoro-1-methylpiperidin-4-yl]amino}-1-(2,2,2-trifluoroethyl)-1H-indol-2-yl)-1,2,4-oxadiazol-5-yl]methyl}-1-(1-methoxy-2-methylpropan-2-yl)-1H-pyrazole-4-carboxamide]	* (* = 0 μM ≤ SC150 < 0.1 μM)
